Assay [1] relates to PC-9. Put plainly: COMPOUND A In Vitro Assay. The assay is classed as cell-based, human. Particulars: for IC50: Homo sapiens. The text has this:
(§1) To generate an MDM2 antagonist therapy predictive signature, the response of MDM2 antagonist therapy in vitro with gene expression profiling (FIG. 1) is combined. A bank of 287 human cancer cell lines, collectively termed the Cell Lines for Oncology/Chugai ACcumulative Tumour EncycLopedia (CELLO/CACTEL), representing a broad array of diverse human cancer tumor types are subject to evaluation using several high-throughput genomic technology platforms. The mutational status of nucleic acids from each cell line is determined by exome sequencing. Messenger RNA (mRNA) expression levels at baseline, prior to MDM2 antagonist therapy, are obtained via RNA sequencing. MDM2 antagonist therapy COMPOUND A, sometimes referred to herein as RG7112, responses are obtained by assays known to those skilled in the art such as RNA sequencing and microarray measurement using Gene Chip Human Genome U133 Plus 2.0 Array. The MDM2 therapy responses are obtained by high throughout screening assays. Depending on their responses to COMPOUND A these cell lines are classified as either sensitive, defined as IC50<=1, or resistant, defined as IC50>=10.
(§2) 281 cells are treated with MDM2 antagonists and the IC50 (therapy response) is generated. The cell lines span a broad range of tumor cell types of derivation.

Assay [2] relates to LCLC-103H. Kind of assay: COMPOUND A In Vitro Assay. The format is cell-based, human.
From the text: as §1, §2

For assay [3], the system named is 4-gene mRNA signature score (MDM2, XPC, BBC3, CDKN2A). Put plainly: NO21279 4-gene mRNA signature score on treatment. The assay is classed as in vivo, human. As to the method:
MDM2 mRNA concentrations were assessed at Roche Molecular Systems by quantitative real-time PCR with 50 ng total RNA from MACs isolated leukemia cells from blood. TaqMan (Invitrogen, Carlsbad, Calif., USA) probes were designed to detect MDM2 mRNA and the reference mRNA, beta-glucuronidase, simultaneously using two different fluorescent reporters. Gene expression profiles were generated using Affymetrix U133 Plus 2.0 microarrays. Probset ID's for the each of the four genes on said U133 Plus 2.0 microarray are: 209375_s_at (for XPC); 205386_s_at and 211832_s_at (MDM2); 211692_s_at (BBC3); 207039_at and 211156_at (CDKN2A). The “mRNA expression level” for one of the 4 genes according to the present invention is the accumulation of all counts falling into the range of exons of a gene (e.g. MDM2). […] The predictive patient signature score according to the present invention is then calculated using the following equation: patient signature score=GMDM2+GXPC+GBBC3−GCDKN2A. G in the formula stands for log 2 transformed mRNA expression levels as obtained from patient samples, for example blood leukemia or bone marrow biopsy samples. For example, for the patient data reported in Table 9 (Example 5), G is log 2 of the mRNA probeset expression of the relevant gene as measured with Affymetrix U133 Plus 2.0 microarrays.
Risk scores are calculated for patients based on their mRNA expression values of the 4 genes at baseline prior to treatment. To ensure a rigorous and an unbiased validation, the compute of the coefficients in the test cohort is not done. However, due to the platform difference and the biological differences between patients and cell lines, in-vitro coefficients for the patient level classifier is not applied.

In assay [4] the test system is P21. As to conditions: NP22890; at C1D8; as previously reported; cited from earlier work.
The subject of assay [5] is P53. Particulars: NP22890; at C1D8; as previously reported; cited from earlier work.

As a reminder, the IC50 is the concentration at which inhibition is half-maximal. On to `CCOc1cc(C(C)(C)C)ccc1C1=N[C@@](C)(c2ccc(Cl)cc2)[C@@](C)(c2ccc(Cl)cc2)N1C(=O)N1CCN(CCCS(C)(=O)=O)CC1` [COMPOUND A], for which the IC50 is 690 nM in assay [1] (PC-9, PC-9, Lung, TP53 Mutant); 700 nM in assay [1] (PC-9, PC-9 cells); 700 nM in assay [2] (Homo sapiens, Lung, TP53 Mutant). For the same compound, the “response to COMPOUND A (sensitive / resistant)” value in assay [1] (PC-9, TP53 mutant cell line) was “sensitive (sensitive, defined as IC50<=1)”; in assay [2] (TP53 mutant cell line) it was “sensitive (sensitive, defined as IC50<=1)”. The “median signature score over baseline” value was 1.15 times in assay [3] (C1D2, CR patients, IQR 1.13-1.15); 1.08 times in assay [3] (C1D2, HI patients, IQR 1.04-1.10); 1.17 times in assay [3] (C1D2, MLFS patients, IQR 1.14-1.19); 1.11 times in assay [3] (C1D2, PD patients, IQR 1.05-1.16); 1.23 times in assay [3] (C1D10, CR patients, IQR 1.22-1.24); 1.25 times in assay [3] (C1D10, HI patients, IQR 1.23-1.30). The “median signature score over baseline” value in assay [3] (C1D10, MLFS patients, IQR 1.23-1.31) worked out at 1.26 times; in assay [3] (C1D10, PD patients, IQR 1.08-1.21), 1.14 times. In addition, the “overall signature score over baseline” value in assay [3] (C1D10, IQR 1.88-4.23) was determined as 3.05 times. In assay [4], the “P21 concentration change from baseline” value is “significantly increase”. In assay [5], the “P53 concentration change from baseline” value was “significantly increase”.

The values are drawn from patent US9657351B2, “MRNA-based gene expression for personalizing patient cancer therapy with an MDM2 antagonist” (Hoffmann-La Roche Inc., priority 2013, dated 2017).
